Laboratory results from patent US20130064831A1, “IMMUNOTHERAPEUTIC DOSING REGIMENS AND COMBINATIONS THEREOF” (Bristol-Myers Squibb Company, priority 2010, published 2013).

Experiments:
NSCLC Subjects = test: CA184041 phase II trial: safety, exposure and discontinuation; settings: in vivo
Method: Blinded Study Drug: Ipilimumab 10 mg/kg or matched placebo administered as a single dose intravenously over 90 minutes every 3 weeks (up to 6 doses) as part of induction. Subjects may receive additional maintenance Ipilimumab/placebo at a dose of 10 mg/kg and administered intravenously over 90 minutes every 12 weeks starting 24 weeks after the first Ipilimumab/placebo dose. Dose reductions were not permitted. […] Dose modifications (reductions as well as delays) are as per product label. PARAPLATIN®: AUC=6 administered as a single dose intravenously over 30 minutes every 3 weeks (up to 6 doses). Dose modifications (reductions as well as delays) are as per product label. Treatment with blinded Ipilimumab (active or placebo) proceeded until immune-related tumor progression as defined by the irRC is observed or intolerable toxicity occurs.
Safety was summarized and listed for all treated subjects using the National Cancer Institute (NCI) Common Terminology Criteria for Adverse Events (CTCAE) version 3.0 by treatment arm for each tumor type. All treatment emergent AEs, drug-related treatment emergent AEs, serious AEs and drug-related SAEs were tabulated using worst grade per NCI CTCAE v3.0 criteria by system, organ, class, and preferred term. The listings by subject were produced for all deaths, all SAEs and all AEs leading to discontinuation of study drug. […]

melanoma = settings: cited from earlier work
[1] = test system: ovarian or prostate cancer; settings: some patients with ovarian or prostate cancer; cited from earlier work

For “Ipilimumab: fully human IgG1 anti-CTLA-4 monoclonal antibody, CAS 477202-00-9, light/heavy chain variable regions SEQ ID NO:1 and 2”, the “potentiation of chemotherapy-related toxicity” value (NSCLC Subjects) is listed as “did not potentiate chemotherapy-related toxicity”, the tumor regressions (melanoma; initial studies in patients with melanoma) is listed as “objective durable tumor regressions” and the antitumor activity (melanoma; patients with advanced melanoma) is listed as “demonstrated antitumor activity”. For the same substance, the serum tumor markers [1] was “reductions of serum tumor markers”.
